Test results as given in patent publication US20120202814A1, “COMPOUNDS WITH DDX3 INHIBITORY ACTIVITY AND USES THEREOF” (UNIVERSITÀ DEGLI STUDI DI SIENA, priority 2009, published 2012).
Read-outs that look alike come from different tables or passages of the source.

Legend:
HIV-1 = test: Antiviral assay, HIV-1 replication in infected PBMCs (viral RNA in supernatant); format: cell-based; settings: for EC50: Human immunodeficiency virus 1, PBMC; for viral RNA, multiple rounds of replication: PBMC, wild type HIV-1, 5 days post infection, FE15 50 μM, FE66 (35b) 5 μM
Procedure: (§1) FIG. 1. A) Antiviral activity (expressed as % of viral load with respect to the control) of compounds FE56 and FE66 at 0.3 μM and 3 μM doses against single round HIV-1 replication in HeLaCD4+ cells infected with a wild type HIV-1 strain. Measurements were performed at 72 h post infection. B) Antiviral activity of compounds FE15 and FE66 on HIV-1 replication in phytohemagglutinin-stimulated peripheral blood mononuclear cells (PBMCs) […] with HeLa CD4^+-cell culture supernatants containing wild type HIV. Compounds were tested at 50 μM (FE15) and 5 μM (FE66). The HIV-1 RNA was quantified in the cell culture supernatant after 3, and 5 days of incubation. Results are expressed as HIV RNA copies/ml. Control (white bars).
FIG. 2. Antiviral activity of DDX3 inhibitors. A) Comparison of the antiviral activity (expressed as % of viral RNA with respect to the control) on infected PBMCs of a fixed dose of selected inhibitors. Measurements were performed at 72 h post infection. Values are the means of three independent replicates. Error bars are ±SD. White bars: control without drugs; dark grey bar: positive control with AZT (0.01 μM); black bar: first generation inhibitor FE15 (50 μM); light grey bars: second generation DDX3 inhibitors FE66, 11d and 38 (3 μM). B) Dose-response curves for the inhibiton of HIV-1 replication (expressed as % of viral RNA with respect to the control) in infected PBMCs by FE15 (circles) and 38 (triangles). Measurements were performed at 72 h post infection. Values are the means of three independent replicates. Error bars are ±SD.
In detail, 0.5 μg of each HIV-1 plasmid construct was transfected into CD4 HeLa cells by using the lipofectin reagent, according to the recommendations of the manufacturer (Invitrogen, Groningen, The Netherlands). After 3 days of incubation at 37° C., the cell supernatants, which contained reconstituted viable recombinant viruses, were collected. Quantification of the newly produced recombinant strains was obtained by determination of the HIV RNA copy number in the cell culture supernatants. Successively, 10 ml of transfected HeLa CD4^+-cell culture supernatants containing wild-type, and mutated recombinant HIV strain […], was used to infect aliquots of 10×10^6 phytohemagglutinin-stimulated peripheral blood mononuclear cells (PBMCs) from HIV-seronegative blood donors. After 4 h of incubation, supernatants were removed and infected PBMCs were incubated at 37° C. in 10 ml of RPMI 1640 medium (Eurobio, Les Ulis Cedex B, France) supplemented with 20% fetal calf serum (Life Technologies, Ltd., Paisley, Scotland), 2 mM l-glutamine, 100 U of penicillin per ml, 100 μg of streptomycin per ml, 10% interleukin-2 (ZeptoMetrix Co., Buffalo, N.Y.), 5 μg of hydrocortisone (Sigma Chemical Co.) per ml and with fourfold dilutions of antiretroviral drugs. No-drug controls for each drug dilution were included in each assay. After 3, 5 and 7 days of incubation the HIV-1 RNA in the cell culture supernatant was quantified. Recombinant HIV-1 strains from treatment-naive patients and multidrug resistance-associated changes were assayed in parallel. The degree of inhibition of viral replication was measured by determining the HIV-1 RNA level in the supernatants of cell cultures and was expressed as the fold increase in the 50% inhibitory concentrations (IC50s) for resistant recombinant HIV-1 variants compared with the IC50s for the wild-type recombinant variant. Each test was performed in triplicate.

PBMCs = test: Cell viability / cytotoxicity on PBMCs; format: cell-based; settings: PBMCs CC50 / antiviral EC50
From the text: (§2) Cell viability in the presence of the compounds has been determined by standard MTT assays.

[1] = Cell viability / cytotoxicity on PBMCs; format: cell-based; settings: human; PBMCs; Table 2 prints no unit; read-out: Cytotoxicity (CC50) PBMCs, dose required to reduce 50% cell vitality
From the text: as §2

HeLa cells = test: Cell viability / cytotoxicity on HeLa cells; format: cell-based; settings: for Selectivity index HeLa, CC50/EC50: HeLa CC50 / antiviral EC50
Procedure: as §2
(§3) Selected compounds from Table 1 were tested against the cervical cancer HeLa cell line for antiproliferative activity. Cell viability was measured with the CellTiter viability assay (Table 2). Table 3 lists the calculated antiproliferative potencies (EC50, dose required to suppress 50% of cell viability) for a series of representative compounds of the invention.

[2] = Cell viability / cytotoxicity on HeLa cells; format: cell-based; settings: human, HeLa cells (cervical cancer cell line)
Procedure: as §2, §3

MOLT-4 = test: Cell viability / cytotoxicity on MOLT-4 cells; format: cell-based; settings: MOLT-4 CC50 / antiviral EC50
From the text: as §2

[3] = Cell viability / cytotoxicity on MOLT-4 cells; format: cell-based; settings: human, MOLT-4 cells; MOLT-4; Table 2 prints no unit; read-out: Cytotoxicity (CC50) MOLT-4, dose required to reduce 50% cell vitality
From the text: as §2

[4] = molecular target: T1, human DDX3 (ATPase activity) (Homo sapiens, UniProt O00571); test: Human DDX3 ATPase activity assay (luciferase-based luminescence); format: biochemical; settings: DDX3 ATPase activity; read-out: Ki (μM), apparent equilibrium dissociation constant for the inhibitor to the target enzyme DDX3
T1 construct: made in house; host or cells: E. coli
Procedure: ATPase activity was tested with a luciferase-based luminescence assay (Easylite-Kinase, Perkin Elmer) on 96 wells microtiter plates. Briefly, recombinant purified human DDX3 (50-100 ng) was incubated in a 15 μL total reaction volume with reaction buffer (25 mM TrisHCl pH 7.5, 5 mM MgCl2), in the presence of increasing amounts of ATP and/or different combinations of ATP and the inhibitor to be tested. Reference curves in the absence of inhibitor (giving the 100% of enzymatic activity) and in the absence of enzyme (giving the baseline), were also included in each experiment. Reading was performed with a Microbeta Trilux (Perkin Elmer) luminometer, according to the manufacturer's protocol.
ATPase reactions were performed as described, in the presence of increasing amounts of inhibitor and variable ATP concentrations. Variations of the initial velocities of the reaction as a function of ATP concentrations in the absence or presence of 4 were analyzed with the equation: […]
Variation of the % inhibition as a function of compound FE15 at different ATP concentrations were fitted to the equation for cooperative binding: […]
where Vmax is the apparent maximal rate of the reaction in the absence of the inhibitor, [I] is the variable inhibitor concentration, n is the cooperativity index and Ki(app) is the apparent inhibition constant. Comparatively, fitting was done with the same Eq. (2) where n was kept fixed at the value of 1 (non-cooperativity hypothesis). F test was used to compare the two fittings and p value was calculated.
Human recombinant DDX3 was cloned, expressed and purified as described (Franca et al. Proteins 2007, 67, 1128-37).
The anti-DDX3 activity of the compounds of the invention was evaluated by in vitro ATPase activity assay using the recombinant human DDX3 protein produced in E. coli. The potency of inhibition (Ki) for each molecule was calculated, representing the concentration of the inhibitor able to reduce the DDX3 ATPase activity by 50%

[5] = tested on: cervical cancer HeLa cell line; test: Antiproliferative activity against HeLa cells (CellTiter viability assay); format: cell-based; settings: Homo sapiens
Procedure: as §3

wild type HIV-1 strain = test: HIV-1 single round replication in HeLaCD4+ cells; format: cell-based; settings: wild type HIV-1, 0.3 μM and 3 μM doses, 72 h post infection
Procedure: as §1
Selected compounds from Table 1 were tested against HIV-1 replication in two different model systems.

[6] = read-out: Antiviral activity, dose required to reduce 50% viral proliferation (measured as viral RNA load)
[7] = HeLa, Table 2 prints no unit, text gives μM, read-out: Cytotoxicity (CC50) HeLa, dose required to reduce 50% cell vitality
[8] = 72 h, read-out: EC50, anti-HIV activity

T1 sequence (O00571 whole entry): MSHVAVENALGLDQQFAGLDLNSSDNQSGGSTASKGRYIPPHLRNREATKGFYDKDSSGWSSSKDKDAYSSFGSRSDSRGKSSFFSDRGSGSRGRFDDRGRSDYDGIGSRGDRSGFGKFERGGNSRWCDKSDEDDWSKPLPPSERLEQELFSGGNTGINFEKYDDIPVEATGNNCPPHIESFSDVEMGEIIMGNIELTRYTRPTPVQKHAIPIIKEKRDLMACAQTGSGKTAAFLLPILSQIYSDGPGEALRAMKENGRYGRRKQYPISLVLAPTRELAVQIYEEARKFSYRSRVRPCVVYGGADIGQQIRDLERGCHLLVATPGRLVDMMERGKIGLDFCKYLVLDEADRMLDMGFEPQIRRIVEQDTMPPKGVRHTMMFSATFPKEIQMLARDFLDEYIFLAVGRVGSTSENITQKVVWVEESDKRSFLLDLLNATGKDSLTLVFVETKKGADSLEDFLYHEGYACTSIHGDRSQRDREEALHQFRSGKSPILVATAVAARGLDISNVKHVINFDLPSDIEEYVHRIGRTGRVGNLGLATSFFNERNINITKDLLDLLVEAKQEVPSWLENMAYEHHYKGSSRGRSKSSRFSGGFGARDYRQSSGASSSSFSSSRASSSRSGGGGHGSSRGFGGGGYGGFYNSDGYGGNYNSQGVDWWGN

SMILES	EC50 (HIV-1; [6])	Selectivity index PBMCs, CC50/EC50 (PBMCs)	CC50 [1]	Selectivity index HeLa, CC50/EC50 (HeLa cells)	CC50 [2, 7]	Selectivity index MOLT-4, CC50/EC50 (MOLT-4)	CC50 [3]	EC50 (HIV-1; [8])	viral RNA, multiple rounds of replication (HIV-1)	Ki [4]	melting point	EC50 ([5]; 48 hours, read-out: EC50 (μM) 48 hours, dose required to suppress 50% of cell viability)	EC50 ([5]; 72 hours, read-out: EC50 (μM) 72 hours, dose required to suppress 50% of cell viability)	viral load (viral RNA copies), single-round replication (wild type HIV-1 strain)	fold higher antiviral potency than the inhibitor FE15 (HIV-1; HIV-1 infected PBMCs, ratio of EC50)	reduction of viral load compared with 11d and 38 at 3 μM (HIV-1; HIV-1 infected PBMCs, compound at 50 μM, 72 h post infection)	CC50 (HeLa cells; [7])	CC50 ([2]; read-out: CC50, cytotoxicity on HeLa cells)
Oc1ccccc1/C=N/Nc1nc(Nc2ccc(F)cc2)nc(N2CCOCC2)n1 [Compound 16c]	2.5 ± 0.1 µM	4.0	10 ± 1 µM	1.0	2.5 ± 0.3 µM	2.0	5 ± 1 µM											
O=C(CCN1C(=O)/C(=C/c2cccc(F)c2)SC1=S)Nc1ccccc1O [Compound 35b, 3-((Z)-5-(3-Fluorobenzylidene)-4-oxo-2-thioxothiazolidin-3-yl)-N-(2-hydroxyphenyl) propanamide]	7.5 ± 0.7 µM	6.7	50 ± 5 µM	6.7	50 ± 5 µM	6.7	50 ± 10 µM	7.5 µM	significant reduction of viral RNA	0.3 µM	210 to 211 °C	50 µM	10 µM	dose-dependent reduction of viral load				
Oc1ccccc1/C=N/Nc1nc(Nc2ccc(F)cc2)nc(Nc2ccc(F)cc2)n1 [Compound 38, (E)-2-((2-(4,6-bis(4-Fluorophenylamino)-1,3,5-triazin-2-yl)hydrazono)methyl)phenol]	2 ± 0.2 µM	4.0	8 ± 0.5 µM	10	20 ± 2 µM	5.0	10 ± 1 µM	2 µM		0.1 µM					41 fold			
O=C(CCN1C(=O)/C(=C/c2cccc(Br)c2)SC1=S)Nc1ccccc1O [FE-15, (Z)-3-(5-(3-Bromobenzylidene)-4-oxo-2-thioxothiazolidin-3-yl)-N-(2-hydroxyphenyl)propanamide]	83 ± 7 µM	1.8	> 150 µM	2.4		2.4	> 200 µM	83 µM	significant reduction of viral RNA	4.5 µM	222 to 224 °C					comparable effects	> 200 µM	> 200 µM
O=C1Nc2ccccc2/C1=N/Nc1nc(Nc2ccccc2)nc(Nc2ccccc2)n1 [FE-56]										0.4 µM				dose-dependent reduction of viral load				
